Laboratory results taken from publication PMC5218480 (PLoS ONE, 2017).

Test system: MV-4-11 cells
Test: Gene expression microarray analysis (Affymetrix PrimeView) and GSEA
Type: cell-based, human
Set-up: RFU PODN (11730768_x_at) / Fold change /veh PODN (11730768_x_at) / RFU LINC00158 (11744669_a_at) / Fold change /veh LINC00158 (11744669_a_at) / RFU DUSP10 (11751237_a_at) / Fold change /veh DUSP10 (11751237_a_at) / RFU ID3 (11757404_x_at) / Fold change /veh ID3 (11757404_x_at) / RFU PLEKHG5 (11737974_s_at) / Fold change /veh PLEKHG5 (11737974_s_at) / RFU LRRC4B (11730491_at) / Fold change /veh LRRC4B (11730491_at) / RFU GIMAP4 (11747438_a_at) / Fold change /veh GIMAP4 (11747438_a_at) / RFU KRT8 (11758183_x_at) / Fold change /veh KRT8 (11758183_x_at) / RFU CNN1 (11734310_a_at) / Fold change /veh CNN1 (11734310_a_at) / RFU VPS37D (11726825_at) / Fold change /veh VPS37D (11726825_at) / RFU C10orf10 (11716522_x_at) / Fold change /veh C10orf10 (11716522_x_at) / RFU KIR2DL2 /// KIR2DL4 /// KIR2DL5A /// KIR2DL5B /// KIR2DS1 /// KIR2DS2 /// KIR2DS3 /// KIR2DS4 /// KIR3DL3 /// KIR3DL3 /// KIR3DS1 (11738374_at) / Fold change /veh KIR2DL2 /// KIR2DL4 /// KIR2DL5A /// KIR2DL5B /// KIR2DS1 /// KIR2DS2 /// KIR2DS3 /// KIR2DS4 /// KIR3DL3 /// KIR3DL3 /// KIR3DS1 (11738374_at) / RFU C1QL1 (11718748_at) / Fold change /veh C1QL1 (11718748_at) / RFU TMPRSS4 (11747572_a_at) / Fold change /veh TMPRSS4 (11747572_a_at) / RFU HAMP (11756126_x_at) / Fold change /veh HAMP (11756126_x_at) / RFU RNFT2 (11725882_a_at) / Fold change /veh RNFT2 (11725882_a_at) / RFU NR4A2 (11747474_a_at) / Fold change /veh NR4A2 (11747474_a_at) / RFU ABCC12 (11746883_a_at) / Fold change /veh ABCC12 (11746883_a_at) / RFU TMEM136 (11760407_x_at) / Fold change /veh TMEM136 (11760407_x_at) / RFU CLDN22 /// WWC2 (11732394_at) / Fold change /veh CLDN22 /// WWC2 (11732394_at) / RFU HLA-DPB1 (11760878_x_at) / Fold change /veh HLA-DPB1 (11760878_x_at) / RFU SPINT1 (11716480_a_at) / Fold change /veh SPINT1 (11716480_a_at) / RFU GAP43 (11754022_s_at) / Fold change /veh GAP43 (11754022_s_at) / RFU A4GNT (11735810_at) / Fold change /veh A4GNT (11735810_at) / RFU PRB3 (11715151_x_at) / Fold change /veh PRB3 (11715151_x_at) / RFU TUBB4B (11761932_at) / Fold change /veh TUBB4B (11761932_at) / RFU CAPN14 (11732068_a_at) / Fold change /veh CAPN14 (11732068_a_at) / RFU TMCC2 (11721928_a_at) / Fold change /veh TMCC2 (11721928_a_at) / RFU IRGQ (11745062_a_at) / Fold change /veh IRGQ (11745062_a_at) / RFU FAM174B (11720279_a_at) / Fold change /veh FAM174B (11720279_a_at) / RFU TMPRSS4 (11748680_a_at) / Fold change /veh TMPRSS4 (11748680_a_at) / RFU FAM212B (11763350_a_at) / Fold change /veh FAM212B (11763350_a_at) / RFU PLEKHG5 (11743358_a_at) / Fold change /veh PLEKHG5 (11743358_a_at) / RFU ZSCAN30 (11745921_a_at) / Fold change /veh ZSCAN30 (11745921_a_at) / RFU CMKLR1 (11741424_a_at) / Fold change /veh CMKLR1 (11741424_a_at) / RFU LOC101060620 /// MAPK8IP1 (11723275_at) / Fold change /veh LOC101060620 /// MAPK8IP1 (11723275_at) / RFU SPTSSB (11747773_x_at) / Fold change /veh SPTSSB (11747773_x_at) / RFU PRSS12 (11739890_at) / Fold change /veh PRSS12 (11739890_at) / RFU BIN1 (11741810_x_at) / Fold change /veh BIN1 (11741810_x_at) / RFU WNT11 (11732464_a_at) / Fold change /veh WNT11 (11732464_a_at) / RFU C10orf10 (11716521_a_at) / Fold change /veh C10orf10 (11716521_a_at) / RFU C5orf56 (11738089_at) / Fold change /veh C5orf56 (11738089_at) / RFU CYB561 (11721691_x_at) / Fold change /veh CYB561 (11721691_x_at) / RFU ANKRD19P (11752326_a_at) / Fold change /veh ANKRD19P (11752326_a_at) / RFU OR2T12 /// OR2T33 /// OR2T8 (11738714_s_at) / Fold change /veh OR2T12 /// OR2T33 /// OR2T8 (11738714_s_at) / RFU VCAN (11748164_a_at) / Fold change /veh VCAN (11748164_a_at) / RFU JSRP1 (11732532_at) / Fold change /veh JSRP1 (11732532_at) / RFU KRTAP10-11 (11738290_x_at) / Fold change /veh KRTAP10-11 (11738290_x_at) / RFU MYO3A (11730013_a_at) / Fold change /veh MYO3A (11730013_a_at) / RFU EBF3 (11725865_a_at) / Fold change /veh EBF3 (11725865_a_at) / RFU CAMK2N1 (11719241_x_at) / Fold change /veh CAMK2N1 (11719241_x_at) / RFU C5orf56 (11738088_a_at) / Fold change /veh C5orf56 (11738088_a_at) / RFU OLFML3 (11715873_a_at) / Fold change /veh OLFML3 (11715873_a_at) / RFU LOC100653217 /// NTM (11731650_a_at) / Fold change /veh LOC100653217 /// NTM (11731650_a_at) / RFU MAPK11 (11762145_a_at) / Fold change /veh MAPK11 (11762145_a_at) / RFU FIZ1 (11724087_x_at) / Fold change /veh FIZ1 (11724087_x_at) / RFU OASL (11726364_x_at) / Fold change /veh OASL (11726364_x_at) / RFU SOX15 (11748057_x_at) / Fold change /veh SOX15 (11748057_x_at) / RFU CD79A (11719716_a_at) / Fold change /veh CD79A (11719716_a_at) / RFU HIST1H1D (11736915_at) / Fold change /veh HIST1H1D (11736915_at) / RFU CASKIN2 (11723855_a_at) / Fold change /veh CASKIN2 (11723855_a_at) / RFU LOC730098 (11760151_x_at) / Fold change /veh LOC730098 (11760151_x_at) / RFU OR4N2 (11742367_at) / Fold change /veh OR4N2 (11742367_at) / RFU PRRT2 (11749266_a_at) / Fold change /veh PRRT2 (11749266_a_at) / RFU SNX32 (11753110_a_at) / Fold change /veh SNX32 (11753110_a_at) / RFU CDHR5 (11726645_a_at) / Fold change /veh CDHR5 (11726645_a_at) / RFU RCAN1 (11760418_a_at) / Fold change /veh RCAN1 (11760418_a_at) / RFU FAM167A (11723789_a_at) / Fold change /veh FAM167A (11723789_a_at) / RFU FAM26E (11764081_at) / Fold change /veh FAM26E (11764081_at) / RFU ISYNA1 (11749810_s_at) / Fold change /veh ISYNA1 (11749810_s_at) / RFU ACY1 (11761880_at) / Fold change /veh ACY1 (11761880_at) / RFU 11764098_at / Fold change /veh 11764098_at / RFU SAMD14 (11745864_x_at) / Fold change /veh SAMD14 (11745864_x_at) / RFU NPB (11741838_a_at) / Fold change /veh NPB (11741838_a_at) / RFU TMPRSS6 (11731388_a_at) / Fold change /veh TMPRSS6 (11731388_a_at) / RFU KRTAP10-2 (11738614_at) / Fold change /veh KRTAP10-2 (11738614_at) / RFU ARHGAP8 /// PRR5-ARHGAP8 (11727945_x_at) / Fold change /veh ARHGAP8 /// PRR5-ARHGAP8 (11727945_x_at) / RFU KRTAP5-7 /// NADSYN1 (11734609_at) / Fold change /veh KRTAP5-7 /// NADSYN1 (11734609_at) / RFU RASL12 (11751679_a_at) / Fold change /veh RASL12 (11751679_a_at) / RFU CDKN2B (11736163_a_at) / Fold change /veh CDKN2B (11736163_a_at) / RFU PRF1 (11729649_at) / Fold change /veh PRF1 (11729649_at) / RFU, ZNF638 /// ZNF638-IT1 / Fold change vs veh, ZNF638 /// ZNF638-IT1 / RFU, PANK3 / Fold change vs veh, PANK3 / RFU, SH3YL1 / Fold change vs veh, SH3YL1 / RFU, ZEB2 / Fold change vs veh, ZEB2 / RFU, NRIP1 / Fold change vs veh, NRIP1 / RFU, PTTG1IP / Fold change vs veh, PTTG1IP / RFU, CAPN2 / Fold change vs veh, CAPN2 / RFU, MED14 / Fold change vs veh, MED14 / RFU, SNORA58 / Fold change vs veh, SNORA58 / RFU, C1orf63 / Fold change vs veh, C1orf63 / RFU, LRRFIP1 / Fold change vs veh, LRRFIP1 / RFU, NDUFAF7 / Fold change vs veh, NDUFAF7 / RFU, SLC12A2 / Fold change vs veh, SLC12A2 / RFU, IBTK / Fold change vs veh, IBTK / RFU, ESF1 / Fold change vs veh, ESF1 / Fold change vs veh, TMEM50B / RFU, TAOK1 / Fold change vs veh, TAOK1 / RFU, ACBD3 / Fold change vs veh, ACBD3 / RFU, TMA16 / Fold change vs veh, TMA16 / RFU, RWDD3 / Fold change vs veh, RWDD3 / RFU, BCAT1 / Fold change vs veh, BCAT1 / RFU, EDEM3 / Fold change vs veh, EDEM3 / RFU, TMEM33 / Fold change vs veh, TMEM33 / RFU, WDR75 / Fold change vs veh, WDR75 / RFU, AHCTF1 / Fold change vs veh, AHCTF1 / RFU, TFRC / Fold change vs veh, TFRC / RFU, ZDHHC17 / Fold change vs veh, ZDHHC17 / RFU, NOM1 / Fold change vs veh, NOM1 / RFU, ARL8B / Fold change vs veh, ARL8B / RFU, ZBTB11 / Fold change vs veh, ZBTB11 / RFU, TAMM41 / Fold change vs veh, TAMM41 / RFU, KIAA1704 /// LOC100996395 / Fold change vs veh, KIAA1704 /// LOC100996395 / RFU, ING1 / Fold change vs veh, ING1 / RFU, TRMT61B / Fold change vs veh, TRMT61B / RFU, FUBP3 / Fold change vs veh, FUBP3 / RFU, TP53 / Fold change vs veh, TP53 / RFU, TNKS2 / Fold change vs veh, TNKS2 / RFU, ZFP14 / Fold change vs veh, ZFP14 / RFU, ACTR2 / Fold change vs veh, ACTR2 / RFU, PPP3R1 / Fold change vs veh, PPP3R1 / RFU, PIK3R1 / Fold change vs veh, PIK3R1 / RFU, HNRNPA1 / Fold change vs veh, HNRNPA1 / RFU, RNF170 / Fold change vs veh, RNF170 / RFU, ZNF28 / Fold change vs veh, ZNF28 / RFU, RNGTT / Fold change vs veh, RNGTT / RFU, OGT / Fold change vs veh, OGT / RFU, BRD1 / Fold change vs veh, BRD1 / RFU, MARS / Fold change vs veh, MARS / RFU, ZNF655 / Fold change vs veh, ZNF655 / RFU, FAHD1 / Fold change vs veh, FAHD1 / RFU, BDP1 / Fold change vs veh, BDP1 / RFU, LRRCC1 / Fold change vs veh, LRRCC1 / RFU, ARID1A / Fold change vs veh, ARID1A / RFU, ZNF146 / Fold change vs veh, ZNF146 / RFU, ZNF330 / Fold change vs veh, ZNF330 / RFU, GPN3 / Fold change vs veh, GPN3 / RFU, C9orf123 / Fold change vs veh, C9orf123 / RFU, N4BP2L2 / Fold change vs veh, N4BP2L2 / RFU, ARFIP1 / Fold change vs veh, ARFIP1 / RFU, FAM179B / Fold change vs veh, FAM179B / RFU, BCL10 / Fold change vs veh, BCL10 / RFU, UHRF1BP1L / Fold change vs veh, UHRF1BP1L / RFU, BET1 / Fold change vs veh, BET1 / RFU, CNOT2 / Fold change vs veh, CNOT2 / RFU, ZNF268 / Fold change vs veh, ZNF268 / Fold change vs veh, ZNF507 / RFU, DGCR2 / Fold change vs veh, DGCR2 / RFU, WDSUB1 / Fold change vs veh, WDSUB1 / Fold change vs veh, HSP90B1 /// MIR3652 / RFU, ADSS / Fold change vs veh, ADSS / RFU, GK / Fold change vs veh, GK / RFU, ZNF148 / Fold change vs veh, ZNF148 / RFU, TAF9 / Fold change vs veh, TAF9 / RFU, SLC1A5 / Fold change vs veh, SLC1A5 / RFU, SLMO2 / Fold change vs veh, SLMO2 / RFU, ABCC4 / Fold change vs veh, ABCC4 / RFU, LOC101060439 /// RAP1B / Fold change vs veh, LOC101060439 /// RAP1B / RFU, RFX7 / Fold change vs veh, RFX7 / RFU, GTPBP10 / Fold change vs veh, GTPBP10 / RFU, CNEP1R1 / Fold change vs veh, CNEP1R1 / RFU, BIVM-ERCC5 /// ERCC5 / Fold change vs veh, BIVM-ERCC5 /// ERCC5 / RFU, ILF3 / Fold change vs veh, ILF3 / RFU 11762660_at / Fold change /veh 11762660_at / RFU VCAN (11757783_s_at) / Fold change /veh VCAN (11757783_s_at) / RFU DDX43 (11728927_at) / Fold change /veh DDX43 (11728927_at) / RFU KRT8 (11758188_x_at) / Fold change /veh KRT8 (11758188_x_at) / RFU NKD1 (11759106_at) / Fold change /veh NKD1 (11759106_at) / RFU SRD5A1 (11742802_a_at) / Fold change /veh SRD5A1 (11742802_a_at) / RFU TPSAB1 /// TPSB2 (11721975_s_at) / Fold change /veh TPSAB1 /// TPSB2 (11721975_s_at) / RFU GSTM3 (11746129_a_at) / Fold change /veh GSTM3 (11746129_a_at) / RFU IL23R (11737362_x_at) / Fold change /veh IL23R (11737362_x_at) / RFU TMEM51 (11727254_a_at) / Fold change /veh TMEM51 (11727254_a_at) / RFU PIWIL2 (11732686_x_at) / Fold change /veh PIWIL2 (11732686_x_at) / RFU ORM1 (11744905_x_at) / Fold change /veh ORM1 (11744905_x_at) / RFU CCDC152 (11743942_at) / Fold change /veh CCDC152 (11743942_at) / RFU ECM1 (11717891_a_at) / Fold change /veh ECM1 (11717891_a_at) / RFU IL23R (11748794_a_at) / Fold change /veh IL23R (11748794_a_at) / RFU TNFAIP8L3 (11732012_x_at) / Fold change /veh TNFAIP8L3 (11732012_x_at) / RFU MBOAT4 (11741988_at) / Fold change /veh MBOAT4 (11741988_at) / RFU 11764193_at / Fold change /veh 11764193_at / RFU TMEM53 (11763286_at) / Fold change /veh TMEM53 (11763286_at) / RFU MAGEB2 (11727129_at) / Fold change /veh MAGEB2 (11727129_at) / RFU TMEM200A (11744735_a_at) / Fold change /veh TMEM200A (11744735_a_at) / RFU CCDC152 (11751479_a_at) / Fold change /veh CCDC152 (11751479_a_at) / RFU FAM211A (11726209_a_at) / Fold change /veh FAM211A (11726209_a_at) / RFU RGS16 (11746705_a_at) / Fold change /veh RGS16 (11746705_a_at) / RFU VCAN (11755009_s_at) / Fold change /veh VCAN (11755009_s_at) / RFU RHOB (11743442_s_at) / Fold change /veh RHOB (11743442_s_at) / RFU RGS16 (11720943_a_at) / Fold change /veh RGS16 (11720943_a_at) / RFU RGS16 (11720944_at) / Fold change /veh RGS16 (11720944_at) / RFU, VPS4B / Fold change vs veh, VPS4B / RFU, CREB1 / Fold change vs veh, CREB1 / RFU, DNAJC13 / Fold change vs veh, DNAJC13 / RFU, GNAQ / Fold change vs veh, GNAQ / RFU, CDK5R1 / Fold change vs veh, CDK5R1 / RFU, ZRANB3 / Fold change vs veh, ZRANB3 / RFU, CUL4A / Fold change vs veh, CUL4A / RFU, CCNY / Fold change vs veh, CCNY / RFU, UFL1 / Fold change vs veh, UFL1 / RFU, COG3 / Fold change vs veh, COG3 / RFU, DIAPH2 / Fold change vs veh, DIAPH2 / RFU, SKA2 / Fold change vs veh, SKA2 / RFU, AFF3 / Fold change vs veh, AFF3 / RFU, LMF1 / Fold change vs veh, LMF1 / RFU, IPO11 / Fold change vs veh, IPO11 / RFU, DFFB / Fold change vs veh, DFFB / RFU, FOXP1 / Fold change vs veh, FOXP1 / RFU, CARD8 / Fold change vs veh, CARD8 / RFU, STRN3 / Fold change vs veh, STRN3 / RFU, ADK / Fold change vs veh, ADK / RFU, RASSF2 / Fold change vs veh, RASSF2 / RFU, WIPF1 / Fold change vs veh, WIPF1 / RFU, LARP1B / Fold change vs veh, LARP1B / RFU, RASA1 / Fold change vs veh, RASA1 / RFU, RB1 / Fold change vs veh, RB1 / RFU, PPFIA1 / Fold change vs veh, PPFIA1 / RFU, MAT2A / Fold change vs veh, MAT2A / RFU, CCT5 / Fold change vs veh, CCT5 / RFU, WDR92 / Fold change vs veh, WDR92 / RFU, CUX1 / Fold change vs veh, CUX1 / RFU, TTC7A / Fold change vs veh, TTC7A / RFU, TMEM135 / Fold change vs veh, TMEM135 / RFU, DEPTOR / Fold change vs veh, DEPTOR / RFU, CPM / Fold change vs veh, CPM / RFU, DNAJB6 / Fold change vs veh, DNAJB6 / RFU, CACNA2D3 / Fold change vs veh, CACNA2D3 / RFU, DTX4 / Fold change vs veh, DTX4 / RFU, TFCP2 / Fold change vs veh, TFCP2 / RFU, GMCL1 /// GMCL1P1 / Fold change vs veh, GMCL1 /// GMCL1P1 / RFU, AEBP2 / Fold change vs veh, AEBP2 / RFU, SNHG1 /// SNORD22 /// SNORD25 /// SNORD26 /// SNORD27 /// SNORD28 /// SNORD29 /// SNORD31 / Fold change vs veh, SNHG1 /// SNORD22 /// SNORD25 /// SNORD26 /// SNORD27 /// SNORD28 /// SNORD29 /// SNORD31 / Fold change (Aza/veh), C12orf56 (ProbeSet 11735607_a_at) / Fold change (ACY-1035/veh), C12orf56 (ProbeSet 11735607_a_at) / Fold change (Aza/veh), FGFR1OP (ProbeSet 11751329_s_at) / Fold change (ACY-1035/veh), FGFR1OP (ProbeSet 11751329_s_at) / Fold change (Aza/veh), VPS36 (ProbeSet 11739960_a_at) / Fold change (ACY-1035/veh), VPS36 (ProbeSet 11739960_a_at) / RFU SYPL1 (11715823_x_at) / Fold change /veh SYPL1 (11715823_x_at) / RFU IGFBP7 (11715501_s_at) / Fold change /veh IGFBP7 (11715501_s_at) / RFU REEP3 (11722064_at) / Fold change /veh REEP3 (11722064_at) / RFU IGLL1 (11728026_x_at) / Fold change /veh IGLL1 (11728026_x_at): dose or concentration left out as unconfirmed
Details: ProbeSet 11732433_s_at; LIST B

Nc1ccc(-c2cccs2)cc1NC(=O)c1ccc2c(c1)cc(C1CC1)n2CCN1CCOCC1 [ACY-1035]
Fold change vs veh, GK: 1.08
